In patent publication US10369183B2, “Therapeutic compositions from jamaican bitter yam and methods of making and using same” (University of The West Indies, priority 2008, dated 2019):
Marks after values point to notes of the source that are not given here.

Legend:
Type in all cases: in vivo, Wistar rats
Mg^2+ ATPase = test: Intestinal Mg2+ ATPase activity in diabetic rats; details: diabetic rats fed 1% of diet, mean ± SEM
aspartate transaminase = test: Aspartate transaminase activity of liver, kidney and spleen in diabetic rats; details: diabetic rats fed 1% of diet, 4 weeks, mean ± SEM
Excerpt: (§1) Experimental design for the animal studies: adult Wistar rats […] were divided into six groups (8 rats per group, average body weight 249.0±0.3 g) as follows: Group 1—healthy rats receiving normal diet (normal); Group 2—diabetic rats fed normal diet (diabetic); Group 3—diabetic rats fed sapogenin extract (as 1% of the diet); Group 4—diabetic rats fed diosgenin (as 1% of normal diet); Group 5—diabetic rats fed bitter yam (as 1% of diet); and Group 6 fed the bitter yam therapeutic product (BYTP—as 1% of the diet).
(§2) The rats except the control group were made diabetic using standard procedures involving streptozotocin (60 mg/kg body weight in 0.05 M citrate buffer, pH 4.5) injection intraperitonally. The control group rats were injected with an equivalent amount of buffer (0.05 M citrate buffer, pH 4.5). The normal rat diet (PMI Feeds Inc., Lab diet #5001) was a marketed laboratory rodent diet recommended for rats, mice and hamsters with the approximate chemical composition: protein 23%, fat 4.5%, fiber 6.0%, ash 8.0% and carbohydrate 58.5%. Rats were housed in stainless steel cages in a room kept on a 12-hour light-dark cycle, and were allowed to have access to their respective diets and water freely. The cages were cleaned daily. Body weight change, faecal output and total food intake were recorded weekly. The rats were fed on their respective diets for 4 weeks and sacrificed by decapitation after an overnight fast. Blood was collected in oxalate/fluoride vacutainers. The intestine, kidney, liver and spleen were excised, weighed and frozen in liquid nitrogen and stored at −20° C. until required for analysis. A section of the jejunum was cut and stored in 10% buffered formalin.

Na^+/K^+ ATPase = test: Intestinal Na+/K+ ATPase activity in diabetic rats; details: diabetic rats fed 1% of diet, mean ± SEM
Procedure: (§3) Group 1—healthy rats receiving normal diet (normal); Group 2—diabetic rats fed normal diet (diabetic); […] Group 4—diabetic rats fed diosgenin (as 1% of normal diet); Group 5—diabetic rats fed bitter yam (as 1% of diet); and Group 6 fed the bitter yam therapeutic product (BYTP—as 1% of the diet). The rats except the control group were made diabetic using standard procedures involving streptozotocin (60 mg/kg body weight in 0.05 M citrate buffer, pH 4.5) injection intraperitonally. The control group rats were injected with an equivalent amount of buffer (0.05 M citrate buffer, pH 4.5). […] Rats were housed in stainless steel cages in a room kept on a 12-hour light-dark cycle, and were allowed to have access to their respective diets and water freely. The cages were cleaned daily. Body weight change, faecal output and total food intake were recorded weekly. The rats were fed on their respective diets for 4 weeks and sacrificed by decapitation after an overnight fast. Blood was collected in oxalate/fluoride vacutainers. The intestine, kidney, liver and spleen were excised, weighed and frozen in liquid nitrogen and stored at −20° C. until required for analysis. A section of the jejunum was cut and stored in 10% buffered formalin. Na^+/K^+ and Ca^+ ATPase activities were measured by the amount of inorganic phosphate released following incubation with disodium ATP and cations for the appropriate ATPase (see Bonting et al., Sodium-potassium activated adenosinetriphosphatase and cation transport, in Membranes and Ion Transport I, Bittar (Ed.). Wiley-Interscience, N.Y., pp. 257-363 (1970); and Bonting et al., Archives of Biochemistry and Biophysics 101: 47-55 (1963)). The inorganic phosphate was determined by the method of Fiske and Subarow, Journal of Biological Chemistry 66: 375-400 (1925).

Ca^2+ ATPase = test: Intestinal Ca2+ ATPase activity in diabetic rats; details: diabetic rats fed 1% of diet, mean ± SEM
Procedure: as §3

diabetic rats = test: Lipid peroxidation (conjugated dienes, TBARS) in diabetic rats; details: diabetic rats fed 1% of diet, 4 weeks, mean ± SEM
Excerpt: as §1, §2
Lipid peroxidation assays were conducted using the procedure of Tappel and Zalkin, Arch Biochim Biophys, 80: 333-336 (1959). Concentration of conjugated dienes in the liver was determined using the method of Hu et al., J Nutr, 119: 1574-1582 (1989).

glucose-6-phosphatase = test: Glucose-6-phosphatase activity in liver and kidneys of diabetic rats; details: diabetic rats fed 1% of diet, mean ± SEM
Excerpt: as §1
as §2, with “The rats were fed on their respective diets for 4 weeks and sacrificed by decapitation after an overnight fast. Blood was collected in oxalate/fluoride vacutainers. The intestine, kidney, liver and spleen were excised, weighed and frozen in liquid nitrogen and stored at −20° C. until required for analysis. A section of the jejunum was cut and stored in 10% buffered formalin.” left out

maltase = test: Intestinal maltase activity in diabetic rats; details: diabetic rats fed 1% of diet, mean ± SEM
Excerpt: as §1, §2

acid phosphatase = test: Acid phosphatase activity of liver, kidney and spleen in diabetic rats; details: diabetic rats fed 1% of diet, 4 weeks, mean ± SEM
Excerpt: as §1, §2

alanine transaminase = test: Alanine transaminase activity of liver, kidney and spleen in diabetic rats; details: diabetic rats fed 1% of diet, 4 weeks, mean ± SEM
Excerpt: as §1, §2

For `C[C@@H]1CC[C@@]2(OC1)O[C@H]1C[C@H]3[C@@H]4CC=C5C[C@@H](O)CC[C@]5(C)[C@H]4CC[C@]3(C)[C@H]1[C@@H]2C` [diosgenin], the “Specific activity of Mg^2+ ATPase from rat intestinal sections” value (from here on “Specific activity of Mg^2+ ATPase”) (Mg^2+ ATPase; Distal) was 16.4 ± 0.6^a nmol Pi/min/mg protein, the “Specific activity of Mg^2+ ATPase” value (Mg^2+ ATPase; Mid) was 22.1 ± 0.4^b nmol Pi/min/mg protein and the “Specific activity of Mg^2+ ATPase” value (Mg^2+ ATPase; Proximal) was 27.8 ± 0.5^a nmol Pi/min/mg protein. The Aspartate transaminase (aspartate transaminase; kidney) was 5.5 ± 0.6^bc mg pyr/min/mg protein × 10^−4, the Aspartate transaminase (aspartate transaminase; liver) was 8.6 ± 0.7^ab mg pyr/min/mg protein × 10^−4 and the Aspartate transaminase (aspartate transaminase; spleen) was 7.1 ± 1.3^ab mg pyr/min/mg protein × 10^−4. For the same molecule, the “Specific activity of Na^+/K^+ ATPase from rat intestinal sections” value (“Specific activity of Na^+/K^+ ATPase” below) (Na^+/K^+ ATPase; Distal) was 7.3 ± 0.1^c nmol Pi/min/mg protein, the “Specific activity of Na^+/K^+ ATPase” value (Na^+/K^+ ATPase; Mid) was 9.5 ± 0.1^c nmol Pi/min/mg protein and the “Specific activity of Na^+/K^+ ATPase” value (Na^+/K^+ ATPase; Proximal) was 12.8 ± 0.2^c nmol Pi/min/mg protein. For the same molecule, the “Specific activity of Ca^2+ ATPase from rat intestinal sections” value (from here on “Specific activity of Ca^2+ ATPase”) (Ca^2+ ATPase; Distal) was 13.1 ± 0.3^b nmol Pi/min/mg protein, the “Specific activity of Ca^2+ ATPase” value (Ca^2+ ATPase; Mid) was 17.1 ± 0.4^c nmol Pi/min/mg protein and the “Specific activity of Ca^2+ ATPase” value (Ca^2+ ATPase; Proximal) was 34.9 ± 0.6^a nmol Pi/min/mg protein. For the same molecule, the “Kidney TBARS” value (diabetic rats) was 61.7 ± 6.6^a nmol/g kidney, the “Liver TBARS” value (diabetic rats) was 18.1 ± 2.1^a nmol/g liver and the Conjugated dienes (diabetic rats; liver) was 0.428 ± 0.082^a μmole/g liver. The “glucose-6-phosphatase activity, Kidney” value (glucose-6-phosphatase; kidney) was 11.0 ± 2.0^b μmole/min/mg protein × 10^−2, the “glucose-6-phosphatase activity, Liver” value (glucose-6-phosphatase; liver) was 8.3 ± 1.0^a μmole/min/mg protein × 10^−2 and the “Specific activity of maltase from different sections of the rat intestine” value (maltase; Distal) was 14.0 ± 1.0.^A nmol maltase/min/mg protein. The “Specific activity of maltase from different sections of the rat intestine” value (maltase; Mid) was 17.1 ± 0.9^a nmol maltase/min/mg protein, the “Specific activity of maltase from different sections of the rat intestine” value (maltase; Upper) was 18.4 ± 1.2^a nmol maltase/min/mg protein and the Acid phosphatase (acid phosphatase; kidney) was 27.3 ± 1.1^a mg PNP/min/mg protein × 10^−5. The Acid phosphatase (acid phosphatase; liver) was 17.3 ± 0.9^a mg PNP/min/mg protein × 10^−5, the Acid phosphatase (acid phosphatase; spleen) was 9.0 ± 0.8^b mg PNP/min/mg protein × 10^−5 and the Alanine transaminase (alanine transaminase; kidney) was 5.4 ± 0.5^a mg pyr/min/mg protein × 10^−4. The Alanine transaminase (alanine transaminase; liver) was 14.1 ± 2.80^a mg pyr/min/mg protein × 10^−4 and the Alanine transaminase (alanine transaminase; spleen) was 10.7 ± 1.8^ab mg pyr/min/mg protein × 10^−4.
